Measurements: ChEMBL document CHEMBL5137017, “Identification of NVP-CLR457 as an Orally Bioavailable Non-CNS-Penetrant pan-Class IA Phosphoinositol-3-Kinase Inhibitor” (J Med Chem, 2022)
pIC50: −log10 of the molar value. Several values for one entry are separate records, joined by “and”; a condition that tells them apart may be missing. Equal entries are not always repeated. Activity calls are given as the source filed them. The calls are words filed in the database; no cut-off is given here.

Legend:
[1] = target: T1, Serine/threonine-protein kinase mTOR (Homo sapiens, UniProt P42345); test: Displacement of Alexa Fluor labelled Tracer-314 from human N-terminal GST-tagged mTOR incubated for 1 hr by TR-FRET assay
[2] = Brain to blood ratio in OF1 mouse at 1 mg/kg, iv measured at 5 mins post dose by LC-MS/MS analysis; type: ADME, organism-based; details: brain and blood, read-out: BBR
[3] = Brain to blood ratio in OF1 mouse at 1 mg/kg, iv measured at 1 hr post dose by LC-MS/MS analysis; type: ADME, organism-based; details: brain and blood, read-out: BBR
[4] = Drug concentration in OF1 mouse blood at 1 mg/kg, iv measured at 5 mins post dose by LC-MS/MS analysis; type: ADME, organism-based; details: whole blood, read-out: Ct
[5] = Drug concentration in OF1 mouse blood at 1 mg/kg, iv measured at 1 hr post dose by LC-MS/MS analysis; type: ADME, organism-based; details: whole blood, read-out: Ct
[6] = Drug concentration in OF1 mouse brain at 1 mg/kg, iv measured at 5 mins post dose by LC-MS/MS analysis; type: ADME, organism-based; details: in vivo
[7] = Drug concentration in OF1 mouse brain at 1 mg/kg, iv measured at 1 hr post dose by LC-MS/MS analysis; type: ADME, organism-based; details: in vivo
[8] = Stability in mouse liver microsomes assessed as hepatic extraction preincubated for 3 mins followed by NADPH addition and measured after 60 mins; type: ADME, Microsome; details: time 63 min, read-out: ERH
[9] = Stability in rat liver microsomes assessed as hepatic extraction preincubated for 3 mins followed by NADPH addition and measured after 60 mins; type: ADME, Microsome; details: read-out: ERH
[10] = Stability in human liver microsomes assessed as hepatic extraction preincubated for 3 mins followed by NADPH addition and measured after 60 mins; type: ADME, Microsome; details: read-out: ERH
[11] = Volume of distribution at steady state in Sprague-Dawley rat at 3 mg/kg, po or iv measured upto 24 hrs by LC-MS/MS analysis; type: ADME, organism-based; details: in vivo
[12] = Half life in Sprague-Dawley rat at 3 mg/kg, po or iv measured upto 24 hrs by LC-MS/MS analysis; type: ADME, organism-based; details: in vivo
[13] = AUC in Sprague-Dawley rat at 1 mg/kg, iv measured for 0.083 to 48 hrs by LC-MS/MS analysis; type: ADME, organism-based; design: time upper 48 hrs, dose 1 mg/kg, time lower 0.083 hrs, route iv; details: in vivo
[14] = Oral bioavailability in Sprague-Dawley rat at 3 mg/kg measured for 0.25 to 24 hrs by LC-MS/MS analysis; type: ADME, organism-based; details: in vivo, time 0.25-24 hrs
[15] = cells; details: Rattus norvegicus, Rat1, 1 h
[16] = target: T1, Serine/threonine-protein kinase mTOR; test: Binding affinity to human N-terminal GST-tagged mTOR assessed as phosphorylated 4EBP1 by TR-FRET assay
[17] = target: T2, Tubulin (Homo sapiens) (UniProt P68371+Q9H4B7+P0DPH7+P68366+Q13509+Q71U36+P04350+Q3ZCM7+P07437+P68363+Q9BQE3+Q6PEY2+Q13885+Q9BVA1+Q9BUF5); test: Binding affinity to tubulin in human A2058 cells assessed as condensed DNA score at 5 uM measured after 6 hrs by DiffQuick staining based microscopic analysis; type: cell-based
[18] = target: T2, Tubulin (Homo sapiens); test: Binding affinity to tubulin in human A2058 cells assessed as condensed DNA score at 5 uM measured after 24 hrs by DiffQuick staining based microscopic analysis; type: cell-based
[19] = 1-octanol, logP of the compound at pH 7.4; type: physicochemical
[20] = tested on: A2780; test: Induction of cell cycle arrest in human A2780 cells assessed as G2/M marker expression level at 30 uM measured after 6 hr by immunofluorescence staining method; type: functional, cell-based
[21] = target: Tubulin (Sus scrofa) (UniProt P02554+P02550); test: Inhibition of porcine tubulin polymerization assessed as inhibition of microtubule polymerization at 15 to 30 uM measured after 1 hr; type: protein assay; details: dose 15-30 µM, DDE = dose-dependent effect
[22] = tested on: Rat1; test: Antitumor activity at rat Rat1 cells expressing myr-p110alpha xenografted in athymic nude mouse assessed as T/C ratio at 20 mg/kg, po bid measured after 14 to 22 days; type: functional; details: time 14-22 day
[23] = tested on: Rat1; test: Antitumor activity at rat Rat1 cells expressing myr-p110alpha xenografted in athymic nude mouse assessed as T/C ratio at 30 mg/kg, po bid measured after 14 to 22 days; type: functional; details: time 14-22 day
[24] = Toxicity in athymic nude mouse xenografted with rat Rat1 cells expressing myr-p110alpha assessed as body weight loss at 20 to 30 mg/kg, po bid measured for 7 to 15 days; type: organism-based; details: in vivo, dose lower 20 mg/kg, time lower 7 day, dose upper 30 mg/kg, time upper 15 day
[25] = tested on: Rat1; test: Antitumor activity at rat Rat1 cells expressing myr-p110delta xenografted in athymic nude mouse assessed as T/C ratio at 20 mg/kg, po bid measured after 7 to 15 days; type: functional; details: time 7-15 day
[26] = tested on: Rat1; test: Antitumor activity at rat Rat1 cells expressing myr-p110delta xenografted in athymic nude mouse assessed as T/C ratio at 30 mg/kg, po bid measured after 7 to 15 days; type: functional; details: time 7-15 day
[27] = Toxicity in athymic nude mouse xenografted with rat Rat1 cells expressing myr-p110delta assessed as body weight loss at 30 mg/kg, po bid measured for 7 to 15 days; type: organism-based; details: in vivo, time 7-15 day
[28] = Toxicity in athymic nude mouse xenografted with rat Rat1 cells expressing myr-p110delta assessed as drug tolerance at 20 mg/kg, po bid measured for 7 to 15 days; type: organism-based; details: in vivo, time 7-15 day

Tubulin (Sus scrofa), sequence (P02550 whole entry, looked up): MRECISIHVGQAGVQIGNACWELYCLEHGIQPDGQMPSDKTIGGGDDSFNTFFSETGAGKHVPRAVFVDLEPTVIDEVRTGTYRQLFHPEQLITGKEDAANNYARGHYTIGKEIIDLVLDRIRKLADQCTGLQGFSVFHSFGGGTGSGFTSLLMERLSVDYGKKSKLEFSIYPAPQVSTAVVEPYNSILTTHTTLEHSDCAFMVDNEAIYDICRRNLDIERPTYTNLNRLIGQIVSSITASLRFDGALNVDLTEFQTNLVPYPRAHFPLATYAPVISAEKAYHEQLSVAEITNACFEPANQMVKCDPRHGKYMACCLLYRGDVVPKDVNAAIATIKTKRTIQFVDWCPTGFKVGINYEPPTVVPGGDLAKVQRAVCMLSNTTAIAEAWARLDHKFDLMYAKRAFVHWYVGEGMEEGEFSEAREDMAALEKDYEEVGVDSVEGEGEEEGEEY
Tubulin (Sus scrofa), sequence (P02554 whole entry, looked up): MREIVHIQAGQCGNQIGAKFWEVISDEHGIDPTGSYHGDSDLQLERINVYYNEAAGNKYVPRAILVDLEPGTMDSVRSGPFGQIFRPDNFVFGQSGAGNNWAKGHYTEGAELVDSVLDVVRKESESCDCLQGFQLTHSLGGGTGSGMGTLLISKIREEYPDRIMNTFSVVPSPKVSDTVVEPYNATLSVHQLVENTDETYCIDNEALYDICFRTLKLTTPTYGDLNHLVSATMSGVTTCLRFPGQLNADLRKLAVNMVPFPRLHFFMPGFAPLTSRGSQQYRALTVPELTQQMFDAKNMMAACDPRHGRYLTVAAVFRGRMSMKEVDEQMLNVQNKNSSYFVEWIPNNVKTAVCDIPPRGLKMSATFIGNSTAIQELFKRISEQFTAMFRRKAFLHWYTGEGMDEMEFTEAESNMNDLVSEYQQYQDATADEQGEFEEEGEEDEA

| pIC50 [1] | Kp at 5 min [2] | Kp at 1 h [3] | pIC50 [15] | Activity [17] [%] | Activity [18] [%] | SMILES | other results |
| --- | --- | --- | --- | --- | --- | --- | --- |
| 5.54 | 1.11 | 0.9 | 7.55 |  |  | C[C@H]1COC(=O)N1c1nc(-c2cnc(N)nc2C(F)(F)F)cc(N2CCOCC2)n1 | concentration at 5 min [4]: 1640 nM; concentration at 1 h [5]: 616 nM; Ct [6]: 1813 pmol/g; Ct [7]: 553 pmol/g; hepatic extraction ratio at 1 h [8]: 0.27; hepatic extraction ratio at 1 h [9]: 0.67; hepatic extraction ratio at 1 h [10]: 0.54; Vdss [11]: 4.4 L/kg; half-life [12]: 1.2 h; AUC [13]: 0.762 µM·h; bioavailability [14]: 46% |
|  | 3.23 | 1.91 | 6.62 | > 12 | 6 | COc1ccc2c(c1)OCCN2c1cc(-c2cnc(N)nc2)nc(N2CCOCC2)n1 | pIC50 [16]: < 5.04 |
| 5.29 |  |  | 7.20 |  |  | C[C@H]1[C@H](CO)OC(=O)N1c1nc(-c2cnc(N)nc2C(F)(F)F)cc(N2CCOCC2)n1 |  |
|  | 0.2 | 0.12 | 5.60 |  |  | N#Cc1cc(N)ncc1-c1cc(N2CCOC(CCO)C2)nc(N2CCOCC2)n1 (racemic) |  |
|  |  |  | 6.32 | < 2 | < 2 | Nc1ncc(-c2cc(N3CCOCC3)nc(N3CCOCC3)n2)c(=O)[nH]1 | pIC50 [16]: 6.36 |
| < 5.04 |  |  | 6.86 |  |  | Nc1ncc(-c2cc(N3CCOC3=O)nc(N3CCOCC3)n2)c(C(F)(F)F)n1 |  |
|  | 0.23 | 0.12 | 5.44 |  |  | CNC(=O)N(CCO)c1cc(-c2cnc(N)cc2C(F)(F)F)nc(N2CCOCC2)n1 |  |
| 5.04 and < 5.04 |  |  | 5.28 | < 2 | < 2 | Nc1cc(C(F)(F)F)c(-c2cc(N3CCS(=O)(=O)CC3)nc(N3CCOCC3)n2)cn1 | pIC50 [16]: < 5.04 |
| 5.17 |  |  | 5.97 |  |  | Nc1cc(C(F)(F)F)c(-c2cc(N3CCOC3=O)nc(N3CCOCC3)n2)cn1 | logD [19]: 2.7 |
| 5.41 |  |  | 7.00 |  |  | C[C@H]1OC(=O)N(c2nc(-c3cnc(N)nc3C(F)(F)F)cc(N3CCOCC3)n2)[C@H]1CC#N |  |
|  |  |  | 5.55 | 6 | > 12 | Nc1cc(C(F)(F)F)c(-c2cc(N3CCOCC3)nc(N3CCOCC3)c2)cn1 | pIC50 [16]: < 5.04 |
|  | 0.31 | 0.21 | 5.10 |  |  | Nc1cc(C(F)(F)F)c(-c2cc(N3CCOC[C@H]3CO)nc(N3CCOCC3)n2)cn1 |  |
| 5.30 |  |  | 6.57 |  |  | Nc1cc(C(F)(F)F)c(-c2cc(N3CCCC3=O)nc(N3CCOCC3)n2)cn1 | logD [19]: 2.1 |
| < 5.04 |  |  | 7.00 |  |  | Nc1ncc(-c2cc(N3CCOCC3)nc(N3C[C@@H](CO)OC3=O)n2)c(C(F)(F)F)n1 |  |
|  | 1.98 | 1.74 |  | > 12 | > 12 | Nc1cc(C(F)(F)F)c(-c2cc(N3CCOCC3)nc(N3CCOCC3)n2)cn1 [BUPARLISIB] | Activity [20]: Active; inhibition [21]: Dde; T/C [22]: -0.15; T/C [23]: -0.61; Activity [24]: -7%; T/C [25]: 0.1; T/C [26]: 0.12; Activity [27]: -8%; Activity [28]: Toxic |
| 5.77 |  |  | 7.52 |  |  | C[C@H]1[C@@H](CO)OC(=O)N1c1nc(-c2cnc(N)nc2C(F)(F)F)cc(N2CCOCC2)n1 |  |
|  | 1.2 | 0.93 | 5.05 |  |  | Nc1cc(C(F)(F)F)c(-c2cc(NC(CO)Cc3ccccc3)nc(N3CCOCC3)n2)cn1 (racemic) |  |
|  |  |  | 7.85 | < 2 | < 2 | Cn1c(=O)n(-c2ccc(C(C)(C)C#N)cc2)c2c3cc(-c4cnc5ccccc5c4)ccc3ncc21 [DACTOLISIB] |  |
